Structures are written as SMILES.

In one experiment the test system is high myopia. Particulars: intravenously administered PGE1, conclusion of the cited publication; cited from earlier work.
The next experiment relates to ocular district. The experiment can be described thus: Blood flow / anti-ischemic effect in the ocular district after PGE1 cream on the inner forearm. The experiment is classed as in vivo, patient.

On to `CCCCC[C@H](O)/C=C/[C@H]1[C@H](O)CC(=O)[C@@H]1CCCCCCC(=O)O` [PGE1, prostaglandin E1], for which the “duration of the effect of the intravenous administration” value with high myopia is 6-8 weeks. Further, in the experiment on ocular district (cream 20 μg per ml, patient weighing 60 kg, total dose 4 ml of cream (80 μg total of PGE1), transdermal), the “anti-ischemic effects in the ocular district versus 60 micrograms of PGE1 by intravenous infusion” value is listed as “comparable”. For the same molecule, the “effect on blood flow at the ocular district level” value in the experiment on ocular district (cream with 10-30 micrograms of PGE1 per ml, applied on the inner forearm) is listed as “increased blood flow”.
